Results from patent US12351583B2, “Triazolopyrimidines based on thymine nucleobase and methods for producing them” (TERA STONE CO., LTD, priority 2019, dated 2025).
Read-outs that look alike come from different tables or passages of the source.

How the values were obtained:
[1] = system: CCRF-HSB-2 cells (human acute lymphoblastic leukemia); assay: MTT cell proliferation inhibition assay, CCRF-HSB-2 cells; assay type: cell-based; details: for IC50: MTT assay, cultured 3 days, probit analysis, read-out: Inhibitory concentration against tumor cell lines in vitro IC50, CCRF-HSB-2; for cell proliferation inhibitory activity compared with 5-FU, CCRF-HSB-2 cells: comparison of IC50 with control drug 5-FU
Description: (§1) Regarding the synthesized triazolopyrimidine compounds, their cell proliferation inhibitory activities, as an index of antitumor acttivity, were examined. The test was performed by MTT assay (T. Mosmann, J. Immunol. Methods, 65, 55 (1983); M. B. Hansen, S. E. Nielsen and K. Berg, J. Immunol. Methods, 119, 203 (1989), which are incorporated by reference in their entirety.), and the cancer cells tested were CCRF-HSB-2 cells (human acute lymphoblastic leukemia) and KB cells (human […]). Cytarabine (Ara-C, cytarabine: 4-amino-1-β-D-arabinofuranosyl-2(1H)-one) and 5-fluorouracil (5-FU, 5-fluorouracil) were used as control drugs, which are antimetabolite anticancer agents used for, for example, acute leukemia and/or gastrointestinal cancer.
(§2) Human acute lymphoblastic leukemia cells (T-cells) CCRF-HSB-2 and human nasopharyngeal carcinoma-derived KB cells were cultured in RPMI 1640 medium supplemented with 10% fetal bovine serum.
(§3) Test agents were dissolved in dimethyl sulfoxide to become a concentration of 10 mg/ml and stored at 4° C. These solutions were diluted with MEM-Hanks medium and used for the assay.
(§4) • 1. 50 μl of the agent solution or MEM-Hanks medium was pre-filled in a 96-well plate. • 2. Cells in the logarithmic growth phase were harvested, and suspension of the cells was prepared such that the cell density is 1×10^5 cells/ml (5,000 cells/50 μl/well) and the serum concentration is 20%. The suspension 50 μl was seeded to each well. The cells were cultured in a carbon dioxide incubator at 37° C. for 3 days. • 3. After completion of the culture, 10 μl of MTT solution*(5 mg/ml in PBS-) was added to each well, and the cells were further cultured at 37° C. for 4 hours in a carbon dioxide incubator. *MTT solution: 1 g of MTT (Sigma M-2128) was dissolved in 200 ml of PBS-under light shielding, and the solution was filtrated using a 0.45 μm filter, and then stored at 4° C. If insoluble components precipitated during storage, filtration was performed again. • 4. After completion of the culture, 100 μl of 0.02 N HCl/50% N,N-dimethylformamide/20% SDS was added and stirred in each well to dissolve produced formazan. Its absorbance at 570 nm (test wavelength) and 690 nm (reference wavelength) was measured by a microplate reader (Tosoh MPR4Ai) and the proliferation inhibition rate was determined by the following formula. Inhibition rate (%)=(1−Tx/Cx)×100
(§5) Tx: Absorbance of wells containing sample
(§6) Cx: Absorbance of wells containing no sample (control) • 5. Inhibitory concentration showing 50% inhibition (IC50) of samples were determined by probit analysis using a computer software. [Evaluation]

[2] = system: KB cells (human nasopharyngeal carcinoma-derived); assay: MTT cell proliferation inhibition assay, KB cells; assay type: cell-based; details: for IC50: MTT assay, cultured 3 days, probit analysis, read-out: Inhibitory concentration against tumor cell lines in vitro IC50, KB; for cell proliferation inhibitory activity compared with 5-FU, KB cells: comparison of IC50 with control drug 5-FU
Description: as §1, §2, §3, §4, §5, §6

SMILES	IC50 [1] [µM]	IC50 [2] [µM]	further results
Cc1cnc(Cl)n2nc(-c3ccc([N+](=O)[O-])cc3)nc12 [Compound 6f]			cell proliferation inhibitory activity compared with 5-FU, CCRF-HSB-2 cells [1]: stronger cell proliferation inhibitory activity than 5-FU; cell proliferation inhibitory activity compared with 5-FU, KB cells [2]: stronger cell proliferation inhibitory activity than 5-FU
Cc1c[nH]c(=O)nc1NN=Cc1ccccc1 [Compound 3b]	> 100	> 100	
N#Cc1ccc(-c2nc3c(F)c[nH]c(=O)n3n2)cc1 [Compound 9g]	41.3	43.8	
Cc1c[nH]c(=O)n2nc(-c3ccccc3Br)nc12 [Compound 5k]	74.5	92.9	
Cc1cnc(Cl)n2nc(-c3ccccc3)nc12 [Compound 6b]			cell proliferation inhibitory activity compared with 5-FU, CCRF-HSB-2 cells [1]: stronger cell proliferation inhibitory activity than 5-FU
Cc1c[nH]c(=O)n2nc(-c3ccc(C#N)cc3)nc12 [Compound 5m]	> 100	23.7	
Cc1c[nH]c(=O)n2nc(-c3ccncc3)nc12 [Compound 5q]	28.7	42.1	
Cc1c[nH]c(=O)n2nc(-c3ccc(Cl)c(Cl)c3)nc12 [Compound 5j]	15.2	13.4	
Cc1cnc(Cl)n2nc(-c3ccc(C#N)cc3)nc12 [Compound 6m]			cell proliferation inhibitory activity compared with 5-FU, CCRF-HSB-2 cells [1]: stronger cell proliferation inhibitory activity than 5-FU
Nc1ccn([C@@H]2O[C@H](CO)[C@@H](O)[C@@H]2O)c(=O)n1 [AraC, 4-amino-1-β-D-arabinofuranosyl-2(1H)-one, reference compound]			IC50 ([1]; Homo sapiens, 72 h): 0.021 µM; IC50 ([2]; Homo sapiens, 72 h): 0.12 µM
O=c1[nH]cc(F)c2nc(-c3ccccc3)nn12 [Compound 9d]	22.3	39	
CCc1nc2c(F)c[nH]c(=O)n2n1 [Compound 9c]	58.2	48.5	
Cc1c[nH]c(=O)n2nc(-c3ccccc3)nc12 [Compound 5b]	48.6	57.1	
COc1ccc(-c2nc3c(C)c[nH]c(=O)n3n2)cc1 [Compound 5d]	> 100	> 100	
Cc1cnc(Cl)n2nc(-c3ccc(Cl)c(Cl)c3)nc12 [Compound 6j]			cell proliferation inhibitory activity compared with 5-FU, CCRF-HSB-2 cells [1]: stronger cell proliferation inhibitory activity than 5-FU
Cc1c[nH]c(=O)n2nc(-c3cccnc3)nc12 [Compound 5p]	59.4	77.5	
Cc1c[nH]c(=O)n2c(-c3ccccc3)nnc12 [Compound 4b]	> 100	> 100	
CCc1nnc2c(C)c[nH]c(=O)n12 [Compound 4a]	78	82	
Cc1c[nH]c(=O)n2nc(-c3ccc4ccccc4c3)nc12 [Compound 5r]	99.1	> 100	
O=c1[nH]cc(F)c(=O)[nH]1 [Compound 5-FU, 5-fluorouracil, reference compound]			IC50 ([1]; Homo sapiens, 72 h): 2.74 µM; IC50 ([2]; Homo sapiens, 72 h): 2.24 µM
Cc1c[nH]c(=O)n2nc(-c3ccc(Cl)cc3)nc12 [Compound 5i]	41.8	50	

More lines, main results first:

IC50 [1] [µM]	IC50 [2] [µM]	SMILES	further results
55.5	62.4	Cc1c[nH]c(=O)n2nc(-c3ccc(F)cc3)nc12 [Compound 5h]	
63.1	42.9	Cc1ccc(-c2nc3c(C)c[nH]c(=O)n3n2)cc1 [Compound 5c]	
> 100	> 100	COc1cc(OC)c(-c2nc3c(C)c[nH]c(=O)n3n2)c(OC)c1 [Compound 5e]	
> 100	> 100	Cc1c[nH]c(=O)n2nc(-c3ccc(C(=O)O)cc3)nc12 [Compound 5n]	
23.6	28.9	O=c1[nH]cc(F)c2nc(-c3ccc(Cl)c(Cl)c3)nn12 [Compound 9e]	
31.5	28.5	O=c1[nH]cc(F)c2nc(-c3ccc(Br)cc3)nn12 [Compound 9f]	
71.6	1.85	Cc1c[nH]c(=O)n2nc(-c3ccc([N+](=O)[O-])cc3)nc12 [Compound 5f]	cell proliferation inhibitory activity compared with 5-FU, KB cells [2]: stronger cell proliferation inhibitory activity than 5-FU
48.8	62.4	Cc1c[nH]c(=O)n2nc(-c3ccccc3F)nc12 [Compound 5g]	
